Measured values published in patent US4013791A, “Peptides having an antihypertensive effect” (Hoechst Aktiengesellschaft, priority 1974, dated 1977).

Key:
angiotensin II (AT II) [1] = assay: Potency of AT II analogs: inhibition of the increase in blood pressure caused by AT II, with and without infusion of the analog; format: in vivo; settings: for Inhibiting effect in percent, 0.5mcg/kg i.v. AT II: AT II 0.5mcg/kg i.v.; for Inhibiting effect in percent, 1mcg/kg i.v. AT II: AT II 1mcg/kg i.v.; for Inhibiting effect in percent, 2mcg/kg i.v. AT II: AT II 2mcg/kg i.v.
Experimental: (§1) The potency of the AT II analogs is determined by measuring the increase in blood pressure caused by increasing amounts of AT II with and without infusion of the analog to be tested, at different dosages; duration of action is determined on the basis of the time during which a single injection of the analog to be tested is effective under permanent infusion of AT II.

angiotensin II (AT II) [2] = assay: Duration of action of a single injection of the analog under permanent infusion of AT II; format: in vivo; settings: single injection 0.1mg/kg i.v. under permanent infusion of AT II
Experimental: as §1

[3] = analog infusion 1 mcg/kg/min i.v.
[4] = analog infusion 5 mcg/kg/min i.v.
[5] = analog infusion 10mcg/kg/min i.v.

Row | Substance | Inhibiting effect in percent, 0.5mcg/kg i.v. AT II (angiotensin II (AT II) [1]; [3]) [%] | Inhibiting effect in percent, 0.5mcg/kg i.v. AT II (angiotensin II (AT II) [1]; [4]) [%] | Inhibiting effect in percent, 0.5mcg/kg i.v. AT II (angiotensin II (AT II) [1]; [5]) [%] | Inhibiting effect in percent, 1mcg/kg i.v. AT II (angiotensin II (AT II) [1]; [3]) [%] | Inhibiting effect in percent, 1mcg/kg i.v. AT II (angiotensin II (AT II) [1]; [4]) [%] | Inhibiting effect in percent, 1mcg/kg i.v. AT II (angiotensin II (AT II) [1]; [5]) [%] | Inhibiting effect in percent, 2mcg/kg i.v. AT II (angiotensin II (AT II) [1]; [3]) [%] | Inhibiting effect in percent, 2mcg/kg i.v. AT II (angiotensin II (AT II) [1]; [4]) [%] | Inhibiting effect in percent, 2mcg/kg i.v. AT II (angiotensin II (AT II) [1]; [5]) [%] | duration of action in min. 0.1mg/kg i.v. (angiotensin II (AT II) [2]) [min]
1 | Succinamoyl--Arg--Val--Tyr--Val--His--Pro--Phegly--OH [[Suc^1,Val^5 pgl^8] AT II] | 42 | 88 | 98 | 51 | 94 | 94 | 55 | 93 | 92 | 89 ± 22
2 | [1-sarcosine,5-valine, 8-alanine] angiotensin II [[Sar^1,Val^5 Ala^8] AT II] | 0 | 63 | 88 | 22 | 76 | 90 | 31 | 75 | 89 | 66 ± 21
